# Assay results: patent US20240122887A1, “THERAPEUTIC USES OF L-4-CHLOROKYNURENINE” (VISTAGEN THERAPEUTICS, INC., priority 2015, published 2024)
# What was measured:
# [1] = cited from earlier work
# [2] = molecular target: NMDA receptor glycine B (GlyB) coagonist site (Homo sapiens, UniProt Q05586); conditions: vs naturally occurring kynurenic acid; cited from earlier work
# [3] = Phase 1b clinical study, plasma pharmacokinetics after oral L-4-chlorokynurenine (LC-MS/MS); conditions: human plasma
# Protocol: (§1) Subjects were randomized into one of three cohorts (360, 1,080, and 1,440 mg) and received a daily oral dose for 14 consecutive days. […] However, a total of 50 subjects were enrolled in this study. […] Forty-six subjects completed the study per protocol.
# (§2) Blood was collected in 6-mL lithium heparin Vacutainer tubes. Samples were centrifuged, and the plasma was separated from the cells and frozen within 30 minutes after centrifugation. Centrifuged samples were placed on ice until they were placed in the freezer. Plasma samples were stored frozen at approximately −20° C. until their shipment to a contractor for analysis.
# (§3) Baseline samples (0 minutes) were collected before the drug was administered on Day 1 and on Day 14. Samples were then collected at 0.5, 1, 1.5, 2, 4, 6, 8, 12, and 24 hours after dosing on Day 1 and Day 14.
# (§4) Both assays used a plasma sample volume of 50.0 μg/mL.
# [4] = system: capsaicin-induced hyperalgesia; test: Antihyperalgesic effect on capsaicin-induced hyperalgesia, VAS pain assessment, Phase 1b study; type: in vivo, human
# Protocol: On Day 1 and Day 14 of the clinical study, two intradermal injections of 250 μg of capsaicin were injected sequentially into the volar aspect of alternate forearms to produce burning pain, secondary hyperalgesia, and a flare. The capsaicin USP (United States Pharmacopeia) was prepared according to the site's standard procedure and dissolved in 20% cyclodextrin at a concentration of 10 mg/mL. The first capsaicin injection in one forearm was given 1 hour after oral administration of L-4-chlorokynurenine or placebo, and the second capsaicin injection was given in the other forearm 2 hours after the administration of L-4-chlorokynurenine or placebo. The neurosensory testing began immediately at each capsaicin injection. The serial pain assessments using a 100-mm visual analog scale (VAS) occurred at preinjection and 0, 5, 10, 15, 30, 45, and 60 minutes after each capsaicin injection. The examiner asked the subject to rate the intensity by using the VAS of the spontaneous pain and elicited pain from the application of a 5.18 von Frey hair, 40° C. probe, and gentle stroking with a 1-inch foam brush. The VAS consisted of a 100-mm line with “no pain” written at the 0-mm end and the “worst imaginable pain” written at the 100-mm end. The distance in millimeters provided the pain measurement. […] At least eight determinations of the hyperalgesic area borders were made using the same assessments and starting at different angles. Additionally, subjects were asked to rate the pain intensity of a 1-minute 45° C. heat stimulus (brief thermal stimulation) applied to the anterior thigh at 4.5 hours (±5 minutes) after study drug administration, then every 30 minutes (±5 minutes) through 6 hours after study drug administration. A radiant temperature probe was applied to fix the skin temperature at 36° C. during the pain assessments. Subjects used the VAS for all pain assessments. All study assessment time points were anchored to Time 0, the time of study drug administration. […]
# dopaminergic neurons = conditions: brains of rats; cited from earlier work
# [5] = human, in vivo, po
# Protocol: as §1, §2, §3, §4
# [6] = system: three animal models of peripheral tissue inflammation and nerve injury; test: Animal models of peripheral tissue inflammation and nerve injury; type: in vivo
# [7] = system: patients with obsessive-compulsive disorder; test: Treatment of obsessive-compulsive disorder, OCD-VAS / Y-BOCS; type: in vivo, human; conditions: about 20 to about 2,000 mg/day
# Protocol: Patients with obsessive-compulsive disorder (OCD) are treated with L-4-chlorokynurenine to reduce OCD symptoms. […] The dose of L-4-chlorokynurenine is selected from about 20 mg/day up to about 2,000 mg/day, more preferably about 300 mg/day to about 1,500 mg/day and more preferably about 700 mg/day to about 1,200 mg/day.
# [8] = system: patients with a diagnosis of MDD; test: Treatment of major depressive disorder, HDRS / MADRS (Example 3); type: in vivo, human; conditions: 1,080 or 1,440 mg/day orally for 2 weeks
# Protocol: Twenty-five patients, both male and female, ages 18 to 65, with a diagnosis of MDD are treated with either L-4-chlorokynurenine (1,080 or 1,440 mg/day given orally) for 2 weeks, similar in design to similar studies. [Ibrahim et al. 2012, Zarate et al. 2013, Zarate et al. 2006, Zarate et al. 2005.] […] [Montgomery et al. 1979] Additional indicators of therapeutic efficacy for a given patient could also be the proportion of subjects achieving remission (HDRS≤7) and response (≥50% reduction from baseline in HDRS total score); change from baseline in Hamilton Anxiety Rating Scale (HAM-A) [Hamilton 1959], Columbia Suicide Severity Rating Scale (C-SSRS) total scores [Posner et al. 2011], as well as other measures of mood or psychological states, for example Beck Depression Inventory (BDI) [Beck et al., 1974], the Visual Analogue Scale (VAS) [Aitken 1969], the Brief Psychiatric Rating Scale (BPRS) [Overall et al. 1962], the Clinician Administered Dissociative Scale (CADSS) [Bremner et al. 1998] and the Young Mania Rating Scale (YMRS) [Young et al. 1978].
# [9] = system: patients with chronic tinnitus; test: Treatment of tinnitus, TQ / SF-36 / audiometric parameters (Example 5); type: in vivo, human; conditions: daily oral dose escalated 180, 720, 1440 mg/day
# Protocol: One hundred male or female patients between 20-65 years of age with mon- or binaural chronic tinnitus lasting for at least 3-months are enrolled in the study. Patients are randomized into a drug and placebo groups, baseline psychometric and health measurements are taken, followed by blind administration of a daily single oral dose for 14-days of either L-4-chlorokynurenine (initial dose of 180 mg) or placebo. Subsequent psychometric and health measurements are taken at 3-, 7-, and 14-days post (prior to next drug administration) drug administration. At 14, and 28 days the dose of AV-101 is increased to 720 and 1440 mg/day respectively. At 42 and 70 days, all patients are given the panel of psychometric and health measurements. […]
# Primary success measures are a statistically significant difference between the mean TQ scores of L-4-chlorokynurenine and placebo groups. […] Student t-test for independent samples or the Mann-Whitney test at each time point are used to assess the statistical significance of the quantitative data. The significance of the qualitative data is assessed with chi-square test or the Fisher exact test. To assess improvement over time and dose, TQ and secondary measurements are evaluated using Friedman Variance Analysis and similar tools for variance analysis.
smiles,measurement,setting,value
O=C(O)c1cc(O)c2ccc(Cl)cc2n1 [7-chlorokynurenic acid],Crossing of the blood-brain barrier,[1]; in vivo,does not cross the blood-brain barrier
same,Potency and selectivity relative to endogenous KYNA,[2],about 20 ×
same,Mean 7-chlorokynurenic acid AIC0-t,"[3]; Day 1, after 1,440-mg oral dose of L-4-chlorokynurenine",985 ng·h/mL
same,Mean 7-chlorokynurenic acid AIC0-t,"[3]; Day 1, after lowest oral dose (360 mg) of L-4-chlorokynurenine",156 ng·h/mL
same,Mean 7-chlorokynurenic acid Cmax and AIC0-t on Day 14 compared with Day 1,[3]; once-daily oral doses of L-4-chlorokynurenine for 14 days,slightly lower on Day 14
Nc1cc(Cl)ccc1C(=O)CC(N)C(=O)O [L-4-chlorokynurenine],Access to the central nervous system,[1]; after oral or parenteral administration,readily gains access to the central nervous system
same,"Least squares means of the AUPC for allodynia pain, mechanical hyperalgesia pain and heat hyperalgesia pain vs placebo","[4]; 1,080 mg (Cohort 2)",consistent decrease
same,"Secondary efficacy endpoints (AUPC spontaneous pain, elicited pain von Frey hair, 40° C. probe), treatment vs placebo","[4]; 120 to 180 min Day 1, 60 to 180 min Days 1 and 14",no significant changes
same,"Area under the pain time curve (AUPC) for spontaneous pain, treatment vs placebo (primary efficacy endpoint)","[4]; each dose level, 120 to 180 minutes after dosing on Day 14",no significant change
same,Firing rate and burst firing activity of dopaminergic neurons,dopaminergic neurons,increase
same,Mean L-4-chlorokynurenine AIC0-t,[5],196000 ng·h/mL
same,Mean L-4-chlorokynurenine Cmax and AIC0-t on Day 14 compared with Day 1,[5],slightly lower on Day 14
same,Mean t1/2 of L-4-chlorokynurenine,[5],1.64 to 1.82 h
same,Antihyperalgesic action in animal models,[6],potent antihyperalgesic actions
same,"OCD symptoms (OCD-VAS, Y-BOCS)",[7],Patients show improvement
same,HDRS and/or MADRS total scores (overall depressive symptomatology),[8],significant decrease
same,"Symptoms of tinnitus (TQ, SF-36)",[9],show improvement
